PubChem BioAssay (NCI)
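Where inhibition never reached the appropriate level, the endpoint shown equals the highest concentration tested. Otherwise, values were interpolated linearly from a five-concentration, 48-hour dose response in 96-well plates. GI50: concentration for 50% inhibition of growth. TGI marks complete inhibition of growth.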

Experiments:
Assay in all cases: NCI tumour cell line growth inhibition, 48 h
[1] = test system: RXF 393 renal
[2] = test system: SW-620 colon
[3] = test system: SF-268 CNS
[4] = test system: TK-10 renal
[5] = test system: U251 CNS
[6] = test system: HCT-15 colon
[7] = test system: M14 melanoma
[8] = test system: PC-3 prostate
[9] = test system: IGROV1 ovarian
[10] = test system: DU-145 prostate
[11] = test system: NCI-H460 lung
[12] = test system: CCRF-CEM leukemia
[13] = test system: 786-0 renal
[14] = test system: RPMI-8226 leukemia
[15] = test system: SF-539 CNS
[16] = test system: K-562 leukemia
[17] = test system: EKVX NSCLC
[18] = test system: UO-31 renal
[19] = test system: HOP-92 NSCLC
[20] = test system: UACC-62 melanoma
[21] = test system: SF-295 CNS
[22] = test system: NCI-H23 lung
[23] = test system: SNB-75 CNS
[24] = test system: MALME-3M melanoma
[25] = test system: COLO 205 colon
[26] = test system: ACHN renal
[27] = test system: HL-60(TB) leukemia
[28] = test system: SK-MEL-28 melanoma

Structure (SMILES): Cc1c2c(nn1-c1ccc(S/N=C3\SCC(=O)CN3Cc3ccccc3)cc1)-c1ccccc1CC2
- GI50 [1]: 22.6 µM
- TGI [1]: 54.7 µM
- GI50 [2]: 25.5 µM
- TGI [2]: > 100 µM
- GI50 [3]: 17.6 µM
- TGI [3]: 46.1 µM
- GI50 [4]: 50.4 µM
- TGI [4]: > 100 µM
- GI50 [5]: 21.8 µM
- TGI [5]: 78.9 µM
- GI50 [6]: 31.7 µM
- TGI [6]: > 100 µM
- GI50 [7]: 46.5 µM
- TGI [7]: > 100 µM
- GI50 [8]: 27.7 µM
- TGI [8]: > 100 µM
- GI50 [9]: 24 µM
- TGI [9]: > 100 µM
- GI50 [10]: 50.5 µM
- TGI [10]: > 100 µM
- GI50 [11]: 29.4 µM
- TGI [11]: > 100 µM
- GI50 [12]: 6.45 µM
- TGI [12]: > 100 µM
- GI50 [13]: 89.2 µM
- TGI [13]: > 100 µM
- GI50 [14]: 31.1 µM
- TGI [14]: > 100 µM
- GI50 [15]: 29.5 µM
- TGI [15]: 58.2 µM
- GI50 [16]: 30.1 µM
- TGI [16]: > 100 µM
- GI50 [17]: 46.6 µM
- TGI [17]: > 100 µM
- GI50 [18]: 64.3 µM
- TGI [18]: > 100 µM
- GI50 [19]: > 100 µM
- TGI [19]: > 100 µM
- GI50 [20]: 28.3 µM
- TGI [20]: > 100 µM
- GI50 [21]: 25.7 µM
- TGI [21]: 91.5 µM
- GI50 [22]: 49.8 µM
- TGI [22]: > 100 µM
- GI50 [23]: 75.9 µM
- TGI [23]: > 100 µM
- GI50 [24]: 41.4 µM
- TGI [24]: 82.7 µM
- GI50 [25]: 63.4 µM
- TGI [25]: > 100 µM
- GI50 [26]: 32.9 µM
- TGI [26]: > 100 µM
- GI50 [27]: 34.1 µM
- TGI [27]: > 100 µM
- GI50 [28]: 24.6 µM
